Like-named read-outs stand apart in the source and are kept apart here.
Legend:
Type in all cases: cell-based
[1] = tested on: RKOp21 (human colon adenocarcinoma) cells; assay: XTT cytotoxicity assay, RKOp21 cells; conditions: read-out: RKOp21 [IC50 (μM)]
Protocol: (§1) Cytotoxicity of selected compounds of the invention against different mammalian cell lines was assessed as follows.
(§2) Human tumor cell lines KB/HeLa (ATCC CCL17, human cervix carcinoma), PC3 (ATCC CRL1435, human prostate carcinoma) and RKOp21 (human colon adenocarcinoma; Schmidt et al., Oncogene 2000, 19: 2423-2429) cells were used in an automated XTT screening assay for the assessment of cytotoxicity.
(§3) The XTT assay quantifies cellular metabolic activity which correlates with cell viability and cell number. Test compounds (selected compounds of the invention and known substances as controls) are dissolved in culture medium at 600 μM and added to the tumor cells in 10 different concentrations in a semi-logarithmic fashion starting from 100 μM as highest concentration.
(§4) In a second set of experiments employing PC3, RKOp21 and SKOV-3 (ATCC HTB-77, human ovary adenocarcinoma) cells, test and reference compounds were dissolved in 70% Ethanol/30% H2O in a stock concentration of 10 mM and diluted in cell culture medium to yield either 31.6 μM (PC3 and RKOp21) or 100 μM (SKOV-3) final concentration.
(§5) 48 h later cellular metabolic activity of cells treated with test compounds is quantified by measurement of the absorbance at 490 nm (conversion of XTT dye) in comparison to untreated control cells (100% viability).
(§6) KB/HeLa and PC3 cells were cultivated in RPMI 1640 medium (Gibco, Cat. No. 42401-018) supplemented with 10% heat inactivated fetal calf serum (FCS, Biochrom AG, Cat. No. S0115), 2 mM L-glutamine (Gibco, Cat. No. 25030-24) and 2% Penicillin-Streptomycin (PenStrep, Gibco, Cat. No. 15140-122). RKOp21 cells were grown in DMEM+GlutaMAXTM-I medium (Gibco, Cat. No. 61965-026) supplemented with 10% heat inactivated fetal calf serum (FCS, Biochrom AG, Cat. No. S0115), 2 mM L-glutamine (Gibco, Cat. No. 25030-24), 2% Penicillin-Streptomycin (PenStrep, Gibco, Cat. No. 15140-122) and 1% 1M HEPES (Gibco, Cat. No. 15630-056). All cells were cultured at 37° C. in 5% CO2 humidified air.
(§7) On the first day of the experiment cells were harvested from exponential phase cultures by trypsination, counted and plated into 96 well flat-bottom micro titer plates depending on the cell line as listed below:
(§8) After a 24 h recovery to allow the cells to resume exponential growth, the test compounds were diluted immediately prior to use and transferred in 25 μl volume to the wells.
(§9) Following 2 days of continuous drug exposure 50 μl of freshly prepared XTT-PMS solution {2% 0.386 mg/ml PMS (N-Methyl Dibenzopyrazine Methylsulphate; Sigma, Cat. No. P9625) in PBS+98% 1 mg/ml XTT (Sodium 2,3-bis(2-methoxy-4-nitro-5-sulfophenyl)-5-[(phenylamino)carbonyl]-2H-Tetrazolium; Serva, Cat. No. 38450) in RPMI 1640 medium without phenol red} was added to the wells. To measure the proportion of living cells, the cells were incubated for 3 h with XTT-PMS reagent at 37° C., 5% CO2, humidified atmosphere allowing to form the formazan salt. The amount of soluble formazan salt produced by cellular reduction of XTT is quantified by measuring the absorbance at 490 nm using the Biomek® 2000 ELISA plate reader. %-inhibition (cytotoxicity) of each test compound was calculated in relation to untreated control cells. Inhibition curves were generated and IC50 values calculated by using GraphPad Prism.

[2] = tested on: PC3 (human prostate carcinoma) cells; assay: XTT cytotoxicity assay, PC3 cells; conditions: read-out: PC3 [IC50 (μM)]
Protocol: as §1, §2, §3, §4, §5, §6, §7, §8, §9

[3] = tested on: KB/HeLa (human cervix carcinoma) cells; assay: XTT cytotoxicity assay, KB/HeLa cells; conditions: read-out: KB/HELA [IC50 (μM)]
Protocol: as §1, §2, §3, §5, §6, §7, §8, §9

[4] = Homo sapiens, XTT, 48 h exposure
[5] = Homo sapiens, PC-3, XTT, 48 h exposure
[6] = Homo sapiens, HeLa, XTT, 48 h exposure

Structure (SMILES) | IC50 [1, 4] | IC50 [2, 5] | IC50 [3, 6] | further results
CCCCCCCCCCOCCOCCOP(=O)([O-])OCC[N+](C)(C)C [Compound 123] | 76.6 µM | 21.8 µM | 39.1 µM | 
CCCCCCCC/C=C\CCCCCCCCCCCCOP(=O)([O-])OC1CCC[N+](C)(CCc2ccccc2)CC1 (stereo not drawn) [Compound 185] | > 100 µM | 30.4 µM | > 100 µM | 
CCCCCCCCCCCCCCCCCCOP(=O)([O-])OCc1cccc[n+]1C [Compound 147] | > 100 µM | > 100 µM | > 100 µM | 
CCCCCCCC/C=C\CCCCCCCCOCCOCCOP(=O)([O-])OC1CC[N+](C)(C)CC1 [Compound 256] | > 100 µM | 82 µM | > 100 µM | 
CCCCCCCCCCCCCCCCCCOP(=O)([O-])OCC1CC[N+](C)(C)CC1 [Compound 152] | > 100 µM | 23.9 µM | 32.3 µM | 
CC(C)CCCC(C)C1CCC2C3=CC=C4CC(OP(=O)([O-])OCC[N+](C)(C)C)CCC4(C)C3CCC21C (stereo not drawn) [Compound 48] | > 100 µM | > 100 µM | > 100 µM | 
CCCCCCCC/C=C\CCCCCCCCOP(=O)([O-])OCC[N+](C)(C)CC [Compound 82] | 20.5 µM | 45.6 µM | 37.7 µM | 
CCCCCCCCCCCCCCCCCCOP(=O)([O-])OCCN1CC[N+](C)(C)CC1 [Compound 154] | 77.4 µM | 18.2 µM | 12.6 µM | 
CCC(C)CC(C)CC(C)CC(C)COP(=O)([O-])OCC[N+](C)(C)C (stereo not drawn) [Compound 235] | > 100 µM | > 100 µM | > 100 µM | 
CCCCCCCC/C=C\CCCCCCCCOP(=O)([O-])OCC[N+]1(C)CCCCC1 [Compound 97] | 89.4 µM | 49.4 µM | > 100 µM | 
CCCCCCCCCCCCCCCCOP(=O)([O-])OCC[n+]1cccc(C(=O)OCC)c1 [Compound 190] | > 100 µM | 73.3 µM | 100 µM | 
CCCCCCCCCCCCCCCCOP(=O)(O)OCCN1CCOCC1 [Compound 60] | > 100 µM | > 100 µM | > 100 µM | 
CC(C)CCCC(C)C1CCC2C3CC=C4CC(OP(=O)([O-])OCC[N+](C)(C)C)CCC4(C)C3CCC12C (stereo not drawn) [Compound 46] | > 100 µM | > 100 µM | > 100 µM | 
CCCCCCCCC#CCCCCCCCCOP(=O)([O-])OCC[N+]1(C)CCCCC1 [Compound 145] | > 100 µM | > 100 µM | > 100 µM | 
CCC(C)CC(C)CC(C)CC(C)COP(=O)([O-])OC1CC[N+](C)(C)CC1 (stereo not drawn) [Compound 258] | > 100 µM | > 100 µM | > 100 µM | 
CCCCCCC1CCC(CCOP(=O)([O-])OCC[N+]2(C)CCCCC2)CC1 (stereo not drawn) [Compound 180] | > 100 µM | > 100 µM | > 100 µM | 

Structure (SMILES) | IC50 [1, 4] | IC50 [2, 5] | IC50 [3, 6] | further results
CCCCCCCCCCCCCCCCOP(=O)([O-])OCC1CC[N+](C)(C)CC1 [Compound 153] | > 100 µM | 39.8 µM | 38.2 µM | 
CC(C)CCCC(C)C1CCC2C3CCC4CC(OP(=O)([O-])OCC[N+](C)(C)C)CCC4(C)C3CCC12C (stereo not drawn) [Compound 41] | > 100 µM | > 100 µM | > 100 µM | 
C[C@H](CCC(=O)O)[C@H]1CCC2[C@@H]3CC[C@@H]4C[C@H](OP(=O)([O-])OCC[N+](C)(C)C)CC[C@]4(C)[C@H]3CC[C@@]21C (stereo partly drawn) [Compound 59] | > 100 µM | > 100 µM | > 100 µM | 
CCCCCCCC/C=C\CCCCCCCCCCCCOP(=O)([O-])OCCC1=C(C)[N+](C)=CC1 [Compound 172] | 65.5 µM | 29.8 µM | > 100 µM | 
CCCCCCCC/C=C\CCCCCCCCCCCCOP(=O)([O-])OC1CC[N+](CC)(CC)CC1 [Compound 203] | > 100 µM | 63.1 µM | > 100 µM | 
CCCCCCCCCCCCCCCCOP(=O)(O)OCCN1CCCC1 [Compound 63] | > 100 µM | > 100 µM | > 100 µM | 
CCCCC/C=C\C/C=C\CCCCCCCCOP(=O)([O-])OCC[N+](C)(C)C [Compound 55] | > 100 µM | > 100 µM | > 100 µM | 
CCCCCCCC/C=C\CCCCCCCC(=O)OCC(COP(=O)([O-])OCC[As+](C)(C)C)OC(=O)CCCCCCC/C=C\CCCCCCCC (stereo not drawn) [Compound 311] |  |  |  | IC50 ([1]; Homo sapiens, 48 h): > 100 µM; IC50 ([2]; Homo sapiens, PC-3, 48 h): > 100 µM; IC50 ([3]; Homo sapiens, HeLa, 48 h): > 100 µM
CCCCCCCCCCCCCCCCOP(=O)([O-])OC1CC[N+](CC)(CC)CC1 [Compound 200] | > 100 µM | 34.5 µM | 66.4 µM | 
CCCCCCCC/C=C\CCCCCCCCCCCCOP(=O)([O-])OCC[N+]1(C)CCC(O)CC1 (stereo not drawn) [Compound 133] | > 100 µM | 81.6 µM | > 100 µM | 
C#CC[N+]1(C)CCC(OP(=O)([O-])OCCCCCCCCCCCCCCCC)CC1 (stereo not drawn) [Compound 262] | > 100 µM | 31.2 µM | 10.1 µM | 
CCCCCCCCCCCCCCCCOP(=O)([O-])OC1C[N+]2(C)CCC1CC2 (stereo not drawn) [Compound 76] | 68.8 µM | 25 µM | 11.3 µM | 
CCCCCCCCCCCCCCCCCCCCOP(=O)([O-])OC1CCC[N+](C)(C)CC1 (stereo not drawn) [Compound 86] | > 100 µM | > 100 µM | 75.6 µM | 
CCCCCCCC/C=C\CCCCCCCCCCCCOP(=O)([O-])OCC[N+](CC)(CC)CC [Compound 275] | 44.4 µM | 69.2 µM | > 100 µM | 
CCCCCCCC/C=C\CCCCCCCCOP(=O)([O-])OCC[N+]1(C)CCCC1 [Compound 91] | > 100 µM | 86.8 µM | > 100 µM | 
CCCCCCCC/C=C\CCCCCCCCCCCCOP(=O)([O-])OCC[As+](CC)(CC)CC [Compound 159] |  |  |  | IC50 ([1]; XTT, 48 h exposure): 21 µM; IC50 ([2]; XTT, 48 h exposure): 37.7 µM; IC50 ([3]; XTT, 48 h exposure): > 100 µM

From US20070167408A1, “NOVEL ALKYL PHOSPHOLIPID DERIVATIVES WITH REDUCED CYTOTOXICITY AND USES THEREOF” (ZENTARIS GmbH, priority 2005, published 2007)
